# Results reported in patent US20230312577A1, “DUAL KINASE-BROMODOMAIN INHIBITORS” (MONASH UNIVERSITY, priority 2020, published 2023).
# How the values were obtained:
# Eμ-Myc lymphoma cells = experiment: In vivo therapeutic assessment, Eμ-Myc lymphoma transplant; design: species or system mouse; settings: 45 mg/kg IP, 5 days per week, 3 weeks
# Procedure: For transplantation of Eμ-Myc lymphomas in vivo, cohorts of 6-8 week old B6.SJL-PtprcPepc/BoyJ (B6.CD45.1) mice were inoculated via tail vein injection with 5×10^5 Eμ-Myc lymphoma cells (C57BL/6 (CD45.2)). Cpd 010 and vehicle controls (30% HPBCD) were prepared as above. Three days after lymphoma inoculation, intraperitoneal (IP) injection of compound 10 (45 mg/kg), or vehicle (30% HPBCD) was administered 5 days per week, for a total of 3-weeks of therapy. Detection of tumour cells on peripheral blood was carried out by flow cytometric analysis using the following antibodies; fixable Viability dye-AmCyan (Zom-bie Aqua™ Fixable Viability Kit, BioLegend), anti-mouse CD19-PE (ThermoFisher Scientific, #12-0193-82), anti-mouse CD45R (B220)-APC (ThermoFisher Scientific, #RA3-6B2), anti-mouse CD45.1-PerCP-Cy™5.5 (ThermoFisher Scientific, #A20), anti-mouse CD45.2-FITC (BioLegend, #104). Data were collected on a BD LSR-Fortessa X20 (BD Biosciences). The data were analysed using FlowJo Software, version 10.0.7 (Tree Star).
# Vk*MYC myeloma cells = experiment: In vivo therapeutic assessment, Vk*MYC multiple myeloma mouse model; settings: once daily, 5 days a week, 3 weeks
# Procedure: For Vk*MYC multiple myeloma mouse models, wild type C57/B16 mice were irradi-ated with 2 fractions of 3.3Gy (Gammacell® 40 caesium source, Atomic Energy of Canada Ltd., Ontario, Canada) prior to transplantation of Vk*MYC myeloma cells (2.4×10^5). Mice were monitored for tumour progression by measuring M-proteins via serum protein electropho-resis (SPEP). Mice were treated with 3 weeks of Cpd 010 or vehicle once daily (5 days a week) for 3 weeks when their average SPEP has reached 7-10%. Serial measurement of SPEP was carried out during and post therapy. Overall survival was recorded.
# [1] = test system: panel of human multiple myeloma cell lines; experiment: Apoptosis assay (TMRE, flow cytometry); type: cell-based; settings: 48 h
# Procedure: A panel of human multiple myeloma cell lines (3×10^5) was incubated in the presence of Cpd 010 or DMSO vehicle control with indicated concentrations for 48 h before flow cytometric analysis of viability using Tetramethylrhodamine ethylester (TMRE) stains. Further apoptotic assay using only OPM2 cells was carried out using Cpd 010 or DMSO with TMRE stains.
# [2] = test system: MLL-AF9 cells (IBET-151-sensitive and IBET-151-resistant); experiment: Apoptosis assay in BET-inhibitor-resistant cells (Annexin V/PI); type: cell-based, mouse; settings: 72 h, Annexin V/PI
# Procedure: Mouse AML cells; MLL-AF9 (IBET-151-sensitive and IBET-151-resistant) (5×10^4) were treated with indicated compounds for 72 h. Apoptotic analysis was performed by flow cytometry using Annexin V/propidium iodide (PI) stains. Data were collected on a BD LSR-Fortessa X20 (BD Biosciences) and analysed using FlowJo Software, version 10.0.7 (Tree Star). IC50 were calculated using the GraphPad Prism Software Version 7.0c. Data are representative of biological triplicates.
# BRD2 = target: T1, BRD2 (Homo sapiens, UniProt P25440); experiment: Cellular thermal shift assay (CETSA) in Ramos cells; type: cell-based; settings: 20 μM, 40 min, vs DMSO
# T1 construct: endogenous in cells; host or cells: Ramos
# T1 sequence (P25440 whole entry): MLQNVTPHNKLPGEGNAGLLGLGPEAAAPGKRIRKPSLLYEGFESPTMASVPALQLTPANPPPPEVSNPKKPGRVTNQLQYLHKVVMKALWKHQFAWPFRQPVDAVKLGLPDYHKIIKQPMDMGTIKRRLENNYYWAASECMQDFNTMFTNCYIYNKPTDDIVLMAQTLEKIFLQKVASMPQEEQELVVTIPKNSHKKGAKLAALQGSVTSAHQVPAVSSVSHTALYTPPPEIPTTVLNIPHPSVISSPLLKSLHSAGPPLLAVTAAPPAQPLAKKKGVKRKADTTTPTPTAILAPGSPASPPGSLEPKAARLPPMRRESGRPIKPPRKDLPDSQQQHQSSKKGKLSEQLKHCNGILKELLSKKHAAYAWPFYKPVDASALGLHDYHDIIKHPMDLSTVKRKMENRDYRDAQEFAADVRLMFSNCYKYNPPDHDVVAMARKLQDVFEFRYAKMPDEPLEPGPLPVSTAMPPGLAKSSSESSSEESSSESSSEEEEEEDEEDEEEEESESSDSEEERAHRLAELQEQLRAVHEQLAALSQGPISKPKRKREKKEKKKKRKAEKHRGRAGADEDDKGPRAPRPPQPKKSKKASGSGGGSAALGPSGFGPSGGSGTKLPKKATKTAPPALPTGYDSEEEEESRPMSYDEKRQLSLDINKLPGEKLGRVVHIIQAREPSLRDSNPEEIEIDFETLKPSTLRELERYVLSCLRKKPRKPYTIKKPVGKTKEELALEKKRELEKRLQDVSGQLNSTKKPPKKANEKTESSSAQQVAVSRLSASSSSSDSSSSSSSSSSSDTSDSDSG
# Procedure: Ramos cells (human Burkitt lymphoma cell line) at 20×10^6 were washed in PBS followed by resuspension in 5 mL serum-free RPMI. They were treated either with Cpd 010 or DMSO at 20 μM for 40 min at 37° C. with 5% CO2. Cells were then collected, resuspended in PBS and separated into PCR tubes. They were heated at designated temperature for strictly 3 min followed by another 3 min at 25° C. on ABI Applied Biosystems 9902 Veriti PCR Thermal Cycler. Immediately, they were placed in liquid nitrogen for snap freezing. The samples were freeze-thawed until the final samples were place on ice. They were centrifuged and supernatants were collected. Loading dye was mixed and these were processed as per our Western Blot protocol (see above). The following primary antibodies were used; rabbit BRD4 (Cell Signaling, #13440), rabbit BRD2 (Cell Signaling, #5848), and mouse anti-β-actin (Sigma-Aldrich, clone AC-74).
# [3] = test system: pAKT (PI3K substrate) and MYC (BET target protein); experiment: Western Blot analysis in OPM2 cells; type: cell-based, human; settings: 4 hours
# Procedure: OPM2 cells (1.2×10^6) were treated with Cpd 010 or DMSO control at indicated concentrations for 4 hours. Lysates were prepared in ice-cold RIPA lysis buffer (Thermofisher, Life Technologies) and supplemented with Halt protease phosphatase inhibitor cocktail (Thermofisher, Pierce Biotechnology). Protein concentrations of lysate samples were determined by bicinchoninic acid assay (BCA assay) using the Thermo Scientific Pierce BCA Protein Assay Kit (ThermoFisher, Life Technologies) as per manufacturer's instructions. Absorbance for protein concentration estimation was measured using a BMG OPTIMA (Fluostar optima, BMG Labtech). Lysates (25-50 μg) were separated on pre-cast gels (Bis-Tris 4-12% gradient gels) (Bolt, Life Technologies) and transferred onto polyvinylidene difluoride (PVDF) membranes (Immobilon-FL, Merck). The membranes were sequentially incubated with primary antibodies o.n. at 4° C.; mouse anti-β-actin (Sigma-Aldrich, clone AC-74), rabbit anti-cMyc (Cell Signaling, #9402S), rabbit anti-pAKT Ser473 (Cell Signaling, #9271), rabbit anti-pS6 Ser240/244 (Cell Signaling, #2215). Subsequently they were incubated with horse radish pe-roxidase (HRP)-conjugated secondary antibodies for 1-2 h at r.t before the detection of proteins by enzymatic (chemiluminescent) reaction using a ChemiDoc^Tm XRS+ System (Bio-Rad La-boratories Inc.). […]
# BRD4 = BRD4 (Homo sapiens, UniProt O60885); experiment: Chromatin immunoprecipitation and sequencing analysis in OPM2 cells; type: cell-based; design: endogenous in cells; host or cells: OPM2; settings: 250 nM, 2 h
# Procedure: OPM2 cells (4×10^6) were treated with 250 nM of Cpd 010 or DMSO control for 2 h. Cells were cross-linked, and nuclei were lysed to achieve a mean DNA fragment size of 300-500 bp. Immunoprecipitation was performed using protein A/G magnetic beads for at least 12 h at 4° C. using the following antibodies: anti-BRD4 anti-H3K27Ac, anti-RNA polymerase II. Reverse crosslinking of DNA was performed, and DNA was purified using QIAquick PCR purification kit. The KAPA Hyper Prep Kit was used to generate libraries as per the manufacturer's instruction, which sequenced on the NextSeq (Illumina; 75 bp SE).
smiles,measurement,setting,value
"CC(=O)N1c2ccc(-c3ccc(CNC(=O)c4cn5cc(-c6cnc(N)nc6)nc(N6CCOCC6)c5n4)cc3)cc2CC[C@@H]1C [Cpd 010, (S)-N-(4-(1-acetyl-2-methyl-1,2,3,4-tetrahydroquinolin-6-yl)benzyl)-6-(2-aminopyrimidin-5-yl)-8-morpholinoimidazo[1,2-a]pyrazine-2-carboxamide]",curative response,Eμ-Myc lymphoma cells,90%
same,survival,Eμ-Myc lymphoma cells; p<0.0001,statistically significant survival benefit
same,tumour burden (M-proteins) on treatment,Vk*MYC myeloma cells; SPEP,reduce tumour burden (M-proteins)
same,median survival,Vk*MYC myeloma cells; vehicle 196.5 days,243 days
same,relative sensitivity of the cell lines,[1]; U266 express MYCN instead of c-MYC,OPM2 cells were the most sensitive and U266 was the least sensitive
same,induction of apoptosis in multiple myeloma cell lines,[1]; six cell lines,induced dose-dependent apoptosis in five of the six treated cells
same,apoptosis in I-BET151-resistant MLL-AF9 cells,[2],"capable of inducing apoptosis in I-BET151-resistant MLL-AF9 cells, comparable to the I-BETE151-sensitive cells"
same,clearance of BRD2 protein with increasing temperature,BRD2,delayed clearance
same,levels of pAKT and MYC,[3],suppressed levels of both pAKT (PI3K substrate) and MYC (BET target protein) at all test concentrations
same,BRD4 and RNA Pol II at MYC locus,BRD4,significant reduction in BRD4 and RNA Pol II
same,displacement of BRD4 from chromatin,BRD4,robust displace ment of BRD4
